Source: article PMC5941726, “Evaluating Hepatobiliary Transport with ^18F-Labeled Bile Acids: The Effect of Radiolabel Position and Bile Acid Structure on Radiosynthesis and In Vitro and In Vivo Performance” (Contrast Media & Molecular Imaging, 2018)
Read-outs that look alike come from different tables or passages of the source.

Experiments:
BSEP = BSEP (Homo sapiens, UniProt O95342); assay: Inhibition of [^3H]TC uptake in BSEP membrane vesicles (efflux assay)
Procedure: All dosing was performed in triplicate. The plates were suspended in a 37°C water bath 1 minute before the incubation. Incubation was started by adding 10 μL of the ATP solution or buffer solution (negative control). Each well contained a final volume of 30 μL and the plates were incubated for 10 minutes at 37°C.
The contents of each well were pipetted in a glass fiber filter plate (Multiscreen HTS plates; Merck Millipore) and washed 3 times with 200 μL ice-cold buffer solution. Finally, 100 μL 0.1 M NaOH was added: lysis of the vesicles took place for 10 minutes at room temperature. An aliquot was used for liquid scintillation counting.

OATP1B1 [1] = target: T1, OATP1B1 (Homo sapiens, UniProt Q9Y6L6)
T1 sequence (Q9Y6L6 1-691): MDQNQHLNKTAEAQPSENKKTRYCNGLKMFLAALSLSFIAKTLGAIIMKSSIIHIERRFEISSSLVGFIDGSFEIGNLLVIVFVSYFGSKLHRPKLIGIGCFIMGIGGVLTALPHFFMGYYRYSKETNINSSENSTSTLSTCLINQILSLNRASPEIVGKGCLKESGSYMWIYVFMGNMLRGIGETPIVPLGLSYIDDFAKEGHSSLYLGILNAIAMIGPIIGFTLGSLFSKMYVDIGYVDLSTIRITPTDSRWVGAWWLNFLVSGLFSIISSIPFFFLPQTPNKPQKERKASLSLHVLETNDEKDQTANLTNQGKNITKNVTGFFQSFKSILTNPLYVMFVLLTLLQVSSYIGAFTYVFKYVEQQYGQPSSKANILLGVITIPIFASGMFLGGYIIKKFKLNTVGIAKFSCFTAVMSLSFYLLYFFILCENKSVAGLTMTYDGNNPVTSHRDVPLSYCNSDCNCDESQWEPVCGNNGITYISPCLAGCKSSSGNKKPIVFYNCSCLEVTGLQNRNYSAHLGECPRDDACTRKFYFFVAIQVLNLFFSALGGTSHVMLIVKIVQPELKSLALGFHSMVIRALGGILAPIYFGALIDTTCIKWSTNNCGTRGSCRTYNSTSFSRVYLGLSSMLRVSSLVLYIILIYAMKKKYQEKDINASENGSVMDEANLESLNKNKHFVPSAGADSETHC
Procedure: (§2) Chinese Hamster Ovary (CHO) and Human Embryonic Kidney (HEK) cells expressing NTCP and OATP1B1, respectively (Solvo Biotechnologies), were used.
(§3) Cells were seeded in 24-well plates at 400,000 cells/well. […] All dosing solutions were formulated in the washing buffer and dosing was executed in triplicate. The incubation was stopped by placing the plates on ice and adding 1 mL ice-cold 1% BSA HBSS-solution. The supernatant was aspirated and the cells were washed twice with 2 mL ice-cold HBSS-solution. NaOH (250 μl, 0.1 M) was added to lyse the cells and the plates were shaken (15 minutes, 37°C). Aliquots of this lysate were subjected to liquid scintillation counting (TriCarb 2900 TR; Perkin Elmer) and protein determination with a BCA-assay (ThermoFisher Scientific).

NTCP = target: T2, NTCP (Homo sapiens, UniProt Q14973); assay: Inhibition of [^3H]taurocholate uptake in CHO cells expressing NTCP (competition assay); format: cell-based; settings: 1 μM [^3H]TC, 15 min 37°C, Cheng-Prusoff from IC50 and Km, mean ± SD n = 3
T2 construct: host or cells: Chinese Hamster Ovary (CHO) cells
T2 sequence (Q14973 1-349): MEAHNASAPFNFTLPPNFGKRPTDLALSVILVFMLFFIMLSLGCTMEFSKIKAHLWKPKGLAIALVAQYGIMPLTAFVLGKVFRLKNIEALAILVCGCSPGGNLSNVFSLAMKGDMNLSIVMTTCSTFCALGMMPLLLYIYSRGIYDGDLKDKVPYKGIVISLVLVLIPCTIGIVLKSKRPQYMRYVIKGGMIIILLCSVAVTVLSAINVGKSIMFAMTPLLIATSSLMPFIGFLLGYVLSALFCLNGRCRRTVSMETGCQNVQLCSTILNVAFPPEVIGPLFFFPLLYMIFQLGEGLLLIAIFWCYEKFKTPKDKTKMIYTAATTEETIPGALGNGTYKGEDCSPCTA
Text: Maintenance of these cell cultures was described earlier.

OATP1B1 [2] = target: T1, OATP1B1; assay: cell-based
Procedure: as §2, §3

[3] = LogD determination of the tracers; format: physicochemical
Procedure: (§1) The logD-value, stability (in formulation for use and mouse serum), and identity of the tracer were assessed as described earlier. Radiochemical purity and percentage ^18F-labeling of precursor were determined by radio-TLC (silica gel TLC; with 10% MeOH in CH2Cl2 and 4 : 1 AcN : H2O, resp.).

[4] = Stability of the tracer in formulation for use; format: physicochemical
Procedure: as §1

[5] = Stability of the tracer in mouse serum; format: in vitro ADME
Procedure: as §1

wild-type FVB-mice = assay: Dynamic PET/CT imaging of hepatobiliary transport in wild-type FVB-mice; format: in vivo, mouse; settings: mouse, in vivo, iv; for Biliary clearance / Injected activity found in gallbladder and intestines after 1 hour: female, FVB; for Biliary clearance: 9 MBq
Procedure: The in vivo transport characteristics of the ^18F labeled bile acids were evaluated in wild-type FVB-mice (female, 5 w). The tracer described earlier, 3β-[^18F]FCA, was also included as a reference standard. Imaging was performed with a PET/CT (FLEX Triumph II small animal PET/CT-scanner; axial field of view: 7.5 cm; 1.3 mm spatial resolution; TriFoil Imaging). For each tracer, three animals were used. The animals were housed and handled in accordance with the European Ethics Committee guidelines and the experiments were approved by the Animal Experimental Ethical Committee of Ghent University (ECD 15/69).
Food and water were provided ad libitum, but the animals were fasted overnight before a PET/CT-scan. They were anesthetized with 1.5 v : v% isoflurane in O2 and placed on a heated bed. To allow injection of the tracer, a polyethylene intravenous line was inserted in the lateral tail vein and fixed. After the animals were transferred to the scanner animal bed, a 1 hour PET-scan was started and 9 MBq tracer was injected directly after starting the scan. Following this PET-scan, 9 MBq [^18F]FDG was injected and twenty minutes later, a second PET-scan with a 20-minute acquisition time was started.
All PET-scans were obtained in list-mode and were iteratively reconstructed (50 iterations). The 1-hour scan was reconstructed in the following frames: 8 × 15 s; 16 × 30 s; 10 × 60 s; 20 × 120 s. For presentation purposes, Maximum Intensity Projection PET/CT images were generated in Amide software. The data were analyzed using Pmod software v3.405 (PMOD Technologies): Regions Of Interest (ROIs) were drawn manually over the liver, gallbladder, and intestines. On the static [^18F]FDG scan, the left ventricle was delineated and this ROI was pasted on the dynamic scan to obtain an image-derived arterial blood concentration. The uptake of radioactivity in liver, gallbladder, and intestines was expressed as a percentage of the injected dose (% ID) and normalized for the weight of a 20 g mouse. The % ID in these organs was monitored in function of time to obtain time-activity curves (TACs). Biliary clearance of the tracers was determined with equation 2 from Ghibellini et al. [14](2) Biliary clearance=cumulative amount of tracer in gallbladder&intestines/AUC blood concentration0→60 min.
The Area Under the Curve (AUC), % ID, and time-to-peak values of the TACs were determined in GraphPad Prism v3.00 Software. The obtained parameters of the different ^18F labeled bile acids were compared to 3β-[^18F]FCA-values in SPSS Statistics 23 Software. Differences between two groups were analyzed with the nonparametric Mann–Whitney U test. A p value ≤ 0.05 was considered significant.

Sequence of BSEP (O95342 whole entry, species assumed): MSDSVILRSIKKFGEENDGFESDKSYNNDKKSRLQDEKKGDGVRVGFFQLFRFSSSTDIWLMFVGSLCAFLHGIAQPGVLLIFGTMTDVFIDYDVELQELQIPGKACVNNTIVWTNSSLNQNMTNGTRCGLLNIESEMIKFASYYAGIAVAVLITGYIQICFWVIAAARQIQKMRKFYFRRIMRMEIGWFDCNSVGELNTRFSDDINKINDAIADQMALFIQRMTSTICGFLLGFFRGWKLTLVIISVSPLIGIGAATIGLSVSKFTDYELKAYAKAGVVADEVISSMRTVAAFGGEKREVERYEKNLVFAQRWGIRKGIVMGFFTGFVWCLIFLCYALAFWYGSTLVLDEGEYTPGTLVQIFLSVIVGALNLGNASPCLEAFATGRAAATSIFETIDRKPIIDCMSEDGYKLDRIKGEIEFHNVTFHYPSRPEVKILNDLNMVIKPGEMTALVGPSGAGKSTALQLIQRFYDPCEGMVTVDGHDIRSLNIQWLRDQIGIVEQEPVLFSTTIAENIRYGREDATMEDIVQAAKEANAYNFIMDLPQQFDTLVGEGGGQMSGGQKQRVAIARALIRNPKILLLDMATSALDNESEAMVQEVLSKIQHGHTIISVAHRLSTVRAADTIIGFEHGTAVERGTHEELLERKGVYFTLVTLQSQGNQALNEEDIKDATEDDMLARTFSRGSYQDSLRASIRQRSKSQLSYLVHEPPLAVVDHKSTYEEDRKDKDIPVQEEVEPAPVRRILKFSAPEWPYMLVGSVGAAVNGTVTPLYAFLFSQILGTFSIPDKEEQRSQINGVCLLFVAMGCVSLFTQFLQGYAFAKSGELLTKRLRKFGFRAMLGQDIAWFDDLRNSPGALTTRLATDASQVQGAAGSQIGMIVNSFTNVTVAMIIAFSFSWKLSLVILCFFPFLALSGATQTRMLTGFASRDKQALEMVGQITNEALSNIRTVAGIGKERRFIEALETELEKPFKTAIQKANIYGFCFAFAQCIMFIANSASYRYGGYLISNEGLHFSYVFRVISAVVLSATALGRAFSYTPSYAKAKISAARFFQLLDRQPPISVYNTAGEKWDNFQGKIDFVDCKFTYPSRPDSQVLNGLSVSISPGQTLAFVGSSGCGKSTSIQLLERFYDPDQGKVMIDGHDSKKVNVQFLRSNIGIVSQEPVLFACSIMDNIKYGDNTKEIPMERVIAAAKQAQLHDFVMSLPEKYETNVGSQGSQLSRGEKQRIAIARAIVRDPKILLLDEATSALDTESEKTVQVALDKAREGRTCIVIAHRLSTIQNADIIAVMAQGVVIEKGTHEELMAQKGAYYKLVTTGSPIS

Structure (SMILES) | Ki (BSEP) | Ki (OATP1B1 [1]) | Ki (NTCP) | Ki (OATP1B1 [2]) | logD [3] | Stability in its formulation [4] | Stability in mouse serum [5] | Biliary clearance (wild-type FVB-mice) | Injected activity found in gallbladder and intestines after 1 hour (wild-type FVB-mice) | Organ uptake after intravenous injection (wild-type FVB-mice)
C[C@H](CCC(=O)O)[C@H]1CC[C@H]2[C@@H]3[C@H](O)C[C@@H]4C[C@@H](F)CC[C@]4(C)[C@H]3CC[C@]12C [3βFCDCA] | 48.2 ± 3.94 µM | 0.64 ± 0.07 µM | 0.91 ± 0.02 µM |  |  |  |  |  |  | 
C[C@H](CCC(=O)O)[C@H]1CC[C@H]2[C@@H]3[C@H](O)C[C@@H]4C[C@H](O)CC[C@]4(C)[C@H]3C[C@H](O)[C@]12C [CA, Cholic acid] |  |  |  | 42.7 ± 0.16 µM |  |  |  |  |  | 
C[C@H](CCC(=O)NCC(=O)O)[C@H]1CC[C@H]2[C@@H]3[C@H](O)C[C@@H]4C[C@@H]([18F])CC[C@]4(C)[C@H]3C[C@H](O)[C@]12C [3β-[^18F]FGCA, 3β-[^18F]fluoroglycocholic acid] |  |  |  |  | 0.011 ± 0.037 | stable | stable | 0.47 ± 0.07 mL/min | approx. 80% | exclusive hepatic uptake
C[C@H](CCC(=O)O)[C@H]1CC[C@H]2[C@@H]3[C@H](O)C[C@@H]4C[C@H](F)CC[C@]4(C)[C@H]3C[C@H](O)[C@]12C [3αFCA, 3α-fluorocholic acid] | 199 ± 39.5 µM | 5.22 ± 0.56 µM | 2.53 ± 0.76 µM |  |  |  |  |  |  | 
C[C@H](CCC(=O)NCC(=O)O)[C@H]1CC[C@H]2[C@@H]3[C@H](O)C[C@@H]4C[C@@H](F)CC[C@]4(C)[C@H]3C[C@H](O)[C@]12C [3βFGCA, 3β F glycocholic acid] | 87.4 ± 14.6 µM | 4.24 ± 0.16 µM | 1.09 ± 0.34 µM |  |  |  |  |  |  | 
C[C@H](CCC(=O)O)[C@H]1CC[C@H]2[C@@H]3[C@H](O)C[C@@H]4C[C@@H]([18F])CC[C@]4(C)[C@H]3CC[C@]12C [3β-[^18F]FCDCA, 3β-[^18F]fluorochenodeoxycholic acid] |  |  |  |  | 1.42 ± 0.16 | stable | stable | 0.18 ± 0.04^∗ mL/min | 60% | exclusive hepatic uptake
